What was measured:
[1] = tested on: Human keratinocytes (Hacat); test: Hyaluronic acid and hyaluronidase levels in UVB-irradiated human keratinocytes; format: cell-based; settings: UVB 90 mJ/cm^2, 24 h
Description: Human keratinocytes (Hacat) were cultured routinely in DMEM medium containing 10% FBS within a 5% CO2 incubator.

[2] = tested on: Th2-related factors Il4, Il13, Il31 and inflammatory factors Tslp, Tnf, Il1; test: MC903-induced ear atopic dermatitis mouse model, Compound 1 ointment: Q-PCR of ear; format: in vivo; set-up: unit not given here; settings: ear mRNA, AD mice
Description: Except for the Normal group, all other groups underwent AD modeling: 20 µL of MC903 solution (also known as calcipotriol, purchased from Shanghai Yuanye Biotechnology Co., Ltd., used for inducing atopic models) was applied to each mouse's ears once daily for 14 consecutive days to induce the atopic dermatitis model. […] Measure ear thickness changes every 2 days using an electronic caliper before modeling and after treatment initiation.

[3] = tested on: inflammatory cytokines (TNF, IL-6, IL-1); test: LPS mouse sepsis model: Q-PCR of inflammatory factor mRNA in lung, liver and kidney; format: in vivo, C57BL/6 mice; settings: sepsis mice
From the text: Gently pipette to mix the above reagents. The reaction conditions are as follows:
Detailed information is as follows:

Hepa1-6 cells = test: Hepa1-6 mouse hepatocellular carcinoma subcutaneous xenograft model; format: in vivo, C57BL/6 mice; settings: Hepa1-6, oral 40 µmol/kg/d, 2 weeks
Description: Hepa1-6 cells were cultured and expanded in vitro. An appropriate amount of cells in the logarithmic growth phase was resuspended in a mixture of serum-free DMEM medium and Matrigel (1:1). under aseptic conditions to prepare a 2.5×10^6/100 µL cell suspension. A 100 µL aliquot of this suspension was injected subcutaneously into the left forearm axilla of male C57BL/6 mice. […] Daily oral administration was performed for 2 weeks. During the treatment period, mouse body weight and tumor diameter were measured daily. At the end of the experiment, mice were euthanized by cervical dislocation, and tumors were removed for weighing. Tumor volume (TV) was calculated using the formula: TV = 1/2 × a × b^2, where a represents the longest diameter of the tumor and b represents the shortest diameter.

[4] = Conversion rate of salt-form prodrugs to parent compound in HEPES buffer solution; format: physicochemical; settings: conversion to Compound 1, HEPES buffer pH 7.4, 37 °C
Outline: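 Salt-form prodrug dissolved in water was mixed 1:1 with HEPES buffer pH 7.4 (or mouse serum) and incubated at 37°C. Aliquots were quenched with methanol and centrifuged, and supernatants taken at 1, 2, 4, 8 and 12 h were analysed by HPLC. Conversion was followed by peak areas.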

[5] = Safety evaluation of Compound 20: 30-day oral gavage in mice (body weight, activity status, survival rate)
4T1 cells = format: in vivo, BALB/c mice; settings: 4T1, oral 40 µmol/kg/day, 3 weeks
Description: 4T1 cells were cultured and expanded in vitro. […] A 100 µL aliquot of this suspension was injected subcutaneously into the left forelimb axilla of female BALB/c mice. […] Daily oral administration was performed for 3 weeks. During the treatment period, mouse body weight and tumor diameter were measured daily. At the end of the experiment, mice were euthanized by cervical dislocation, and tumors were removed for weighing. Tumor volume (TV) was calculated using the formula: TV = 1/2 × a × b^2, where a represents the longest diameter of the tumor and b represents the shortest diameter.

[6] = kidney mRNA (relative, Gapdh), oral gavage 0.1 mg/kg
[7] = kidney mRNA (relative, Gapdh), oral gavage 1 mg/kg
[8] = liver mRNA (relative, Gapdh), oral gavage 0.1 mg/kg
[9] = liver mRNA (relative, Gapdh), oral gavage 1 mg/kg
[10] = lung mRNA (relative, Gapdh), oral gavage 0.1 mg/kg
[11] = lung mRNA (relative, Gapdh), oral gavage 1 mg/kg

Question: With `C=C1C(=O)O[C@@H]2[C@@H]3[C@]4(CC[C@@]3(C)O)C[C@]4(C)CC[C@@H]12` [compound 1] as the compound, how does the Hyaluronic acid ([1]; 0.01 µM) read?
Answer: 8.73 ± 1.62 ng/mL

Question: And the Hyaluronidase ([1]; 0.01 µM)?
Answer: 124.41 ± 16.49 ng/mL

Question: And the Hyaluronic acid ([1]; 0.1 µM)?
Answer: 14.17 ± 1.30 ng/mL

Question: And the Hyaluronidase ([1]; 0.1 µM)?
Answer: 88.07 ± 10.17 ng/mL

Question: What about the Hyaluronic acid ([1]; 1 µM) of the same compound?
Answer: 19.51 ± 1.87 ng/mL

Question: And the Hyaluronidase ([1]; 1 µM)?
Answer: 56.03 ± 5.53 ng/mL

Question: What about the Hyaluronic acid ([1]; 10 µM) of the same compound?
Answer: 24.82 ± 1.13 ng/mL

Question: What about the Hyaluronidase ([1]; 10 µM) of the same compound?
Answer: 37.73 ± 11.49 ng/mL

Question: And the Il1 ([2]; 0.01% ointment)?
Answer: 19.67 ± 5.26

Question: What about the Il4 ([2]; 0.01% ointment) of the same compound?
Answer: 3.62 ±0.97

Question: And the Il13 ([2]; 0.01% ointment)?
Answer: 3.30 ±0.47

Question: What about the Il31 ([2]; 0.01% ointment) of the same compound?
Answer: 2.31 ±0.28

Question: What about the TSLP ([2]; 0.01% ointment) of the same compound?
Answer: 2.24 ±0.25

Question: What about the Tnf ([2]; 0.01% ointment) of the same compound?
Answer: 2.35 ±0.39

Question: And the Il1 ([2]; 0.1% ointment)?
Answer: 9.89 ±3.44

Question: And the Il4 ([2]; 0.1% ointment)?
Answer: 1.95 ±0.66

Question: What about the Il13 ([2]; 0.1% ointment) of the same compound?
Answer: 2.85 ±0.48

Question: And the Il31 ([2]; 0.1% ointment)?
Answer: 1.64 ±0.25

Question: And the TSLP ([2]; 0.1% ointment)?
Answer: 1.42 ±0.16

Question: And the Tnf ([2]; 0.1% ointment)?
Answer: 1.34 ±0.41

Question: What about the Il1 ([2]; 1% ointment) of the same compound?
Answer: 5.69±1.12

Question: And the Il4 ([2]; 1% ointment)?
Answer: 1.17±0.37

Question: And the Il13 ([2]; 1% ointment)?
Answer: 1.56±0.20

Question: What about the Il31 ([2]; 1% ointment) of the same compound?
Answer: 1.10±0.19

Question: And the TSLP ([2]; 1% ointment)?
Answer: 1.12±0.07

Question: What about the Tnf ([2]; 1% ointment) of the same compound?
Answer: 1.01±0.40

Question: And the Il1 [3, 6]?
Answer: 7.01±0.33

Question: What about the Il6 [3, 6] of the same compound?
Answer: 7.55±2.08

Question: And the Tnf [3, 6]?
Answer: 7.17±1.22

Question: What about the Il1 [3, 7] of the same compound?
Answer: 3.05±0.58

Question: What about the Il6 [3, 7] of the same compound?
Answer: 3.11±0.29

Question: What about the Tnf [3, 7] of the same compound?
Answer: 6.59±0.18

Question: What about the Il1 [3, 8] of the same compound?
Answer: 11.32±2.66

Question: What about the Il6 [3, 8] of the same compound?
Answer: 8.50±3.02

Question: What about the Tnf [3, 8] of the same compound?
Answer: 8.68 ± 2.12

Question: And the Il1 [3, 9]?
Answer: 4.84±0.60

Question: What about the Il6 [3, 9] of the same compound?
Answer: 5.10±0.82

Question: What about the Tnf [3, 9] of the same compound?
Answer: 7.01±0.92

Question: What about the Il1 [3, 10] of the same compound?
Answer: 15.29±0.88

Question: What about the Il6 [3, 10] of the same compound?
Answer: 19.17±0.51

Question: What about the Tnf [3, 10] of the same compound?
Answer: 8.58 ± 0.85

Question: And the Il1 [3, 11]?
Answer: 7.89±1.44

Question: What about the Il6 [3, 11] of the same compound?
Answer: 11.67±1.84

Question: What about the Tnf [3, 11] of the same compound?
Answer: 7.99±1.36

Question: Which results are given for `CN(C)C[C@@H]1C(=O)O[C@H]2[C@H]1CC[C@@]1(C)C[C@]13CC[C@@](C)(O)[C@H]23` [compound 20]?
Answer: Tumor Inhibition Rate (%) (Hepa1-6 cells): 96.78%; Tumor weight (Hepa1-6 cells): 0.03 ± 0.02 g; Release rate ([4]; 1 h): 6.2%; Release rate ([4]; 2 h): 13.8%; Release rate ([4]; 4 h): 21.7%; Release rate ([4]; 8 h): 44.3%; Release rate ([4]; 12 h): 59.1%; effect on mouse survival rate ([5]; 500 mg/kg and 1000 mg/kg, 30 days): no significant effect on the survival rate; time to recover to normal activity after administration ([5]; 500, 1000 mg/kg oral gavage): 1 to 2 h; effect on mouse activity status ([5]; 500, 1000 mg/kg oral gavage once daily, 30 days): relatively reduced activity and lethargy after each administration; effect on mouse body weight ([5]; 500, 1000 mg/kg oral gavage once daily, 30 days, female and male mice): no significant effect on the body weight; Survival rate ([5]; female C57BL/6 mice, 500 mg/kg oral gavage once daily for 30 days): 100%; Survival rate ([5]; female C57BL/6 mice, 1000 mg/kg oral gavage once daily for 30 days): 100%; Survival rate ([5]; male C57BL/6 mice, 500 mg/kg oral gavage once daily for 30 days): 100%; Survival rate ([5]; male C57BL/6 mice, 1000 mg/kg oral gavage once daily for 30 days): 100.00%; antitumor effects (4T1 cells): no significant antitumor effects

From patent EP4813381A1, “PHARMACEUTICAL USE OF GUAIANE SESQUITERPENE DERIVATIVE” (Nanjing University Of Chinese Medicine, priority 2023, dated 2025)
